# Columns and labels:
# [1] = target: Tubulin alpha chain (Sus scrofa) (UniProt P02550); conditions: at 5 µM
# CA46 = assay: Inhibits the growth of the human Burkitt lymphoma CA46 cell; format: functional, cell-based
# Tubulin = assay: Inhibition of Tubulin polymerization after 20 minutes of administration at 30 degree Centigrade; format: functional, organism-based
# [2] = target: Tubulin alpha chain (Sus scrofa) (UniProt P02550); assay: Binding affinity of [3H]- colchicine (5.0 uM) to tubulin (1.0 uM, 0.1 mg/mL) was evaluated at concentration of 50 uM
# Chain of Tubulin alpha chain (Sus scrofa) (P02550 whole entry, looked up): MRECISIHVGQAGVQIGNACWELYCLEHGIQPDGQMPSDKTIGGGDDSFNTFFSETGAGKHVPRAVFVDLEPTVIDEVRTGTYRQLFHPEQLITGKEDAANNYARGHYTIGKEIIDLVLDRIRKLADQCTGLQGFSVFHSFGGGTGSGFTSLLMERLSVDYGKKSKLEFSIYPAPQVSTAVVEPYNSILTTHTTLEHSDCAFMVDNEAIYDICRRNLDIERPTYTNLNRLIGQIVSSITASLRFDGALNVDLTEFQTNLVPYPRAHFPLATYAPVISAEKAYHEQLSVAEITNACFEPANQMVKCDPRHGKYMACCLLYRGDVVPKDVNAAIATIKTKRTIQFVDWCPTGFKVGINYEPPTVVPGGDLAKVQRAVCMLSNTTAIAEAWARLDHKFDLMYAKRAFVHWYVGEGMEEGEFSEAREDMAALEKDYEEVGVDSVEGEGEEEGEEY
Structure (SMILES),inhibition [1] [%],IC50 (CA46) [nM],IC50 (Tubulin) [nM],inhibition [2] [%]
CCCC(=O)O[C@H]1CCc2cc(OC)c(OC)c(OC)c2-c2ccc(SC)c(=O)cc21,66,29000,850,
COc1cc2c(c(OC)c1OC)-c1ccc(SC)c(=O)cc1[C@H](OC(C)=O)CC2,11,40000,,74
COc1cc2c(c(OC)c1OC)-c1ccc(SC)c(=O)cc1C(OC(=O)c1ccncc1)CC2 (centres undefined) [listing 1 of 2 here],,,1100,
COc1cc2c(c(OC)c1OC)-c1ccc(SC)c(=O)cc1C(=O)CC2 [THIOCOLCHICONE],70,18000,760,
COc1cc2c(c(OC)c1OC)-c1ccc(SC)c(=O)cc1[C@H](OC(=O)C13CCC(C)(C(=O)O1)C3(C)C)CC2 (some centres undefined),,,17000,
COc1cc2c(c(OC)c1OC)-c1ccc(SC)c(=O)cc1[C@@H](OC(C)=O)CC2,79,3400,,
COc1cc2c(c(OC)c1OC)-c1ccc(SC)c(=O)cc1C(OC(=O)c1ccncc1)CC2 (centres undefined) [listing 2 of 2 here],,,970,
COc1cc2c(c(OC)c1OC)-c1ccc(SC)c(=O)cc1[C@@H](O)CC2,85,2800,,
COc1cc2c(c(OC)c1OC)-c1ccc(SC)c(=O)cc1[C@@H](OC(=O)c1cccnc1)CC2,65,27000,760,
COc1cc2c(c(OC)c1OC)-c1ccc(SC)c(=O)cc1[C@@H](OC(=O)c1ccncc1)CC2,69,2800,560,
COc1cc2c(c(OC)c1OC)-c1ccc(SC)c(=O)cc1[C@H](O)CC2,16,,,73
CCCC(=O)OC1CCc2cc(OC)c(OC)c(OC)c2-c2ccc(SC)c(=O)cc21 (centres undefined),,,1500,
COc1cc2c(c(OC)c1OC)-c1ccc(SC)c(=O)cc1C(Br)CC2 (centres undefined),,,1100,
COc1cc2c(c(OC)c1OC)-c1ccc(SC)c(=O)cc1[C@@H](OC(=O)C13CCC(C)(C(=O)O1)C3(C)C)CC2 (some centres undefined),,,1400,
COc1cc2c(c(OC)c1OC)-c1ccc(SC)c(=O)cc1C(OC(=O)c1cccnc1)CC2 (centres undefined),,,880,
COc1cc2c(c(OC)c1OC)-c1ccc(SC)c(=O)cc1C(OC(=O)c1ccccc1)CC2 (centres undefined),,,1400,

# From ChEMBL document CHEMBL1129977, “Antitumor agents. 172. Synthesis and biological evaluation of novel deacetamidothiocolchicin-7-ols and ester analogs as antitubulin agents” (J Med Chem, 1997)
